Measured values as given in US11479755B2, “T cell compositions” (2seventy bio, Inc., priority 2015, dated 2022).
“Also recorded” adds a separate entry of the source.

Tests used:
anti-BCMA CAR T cells [1] = assay: Integrated copies of anti-BCMA CAR (vector copy number) by quantitative PCR; assay type: cell-based, human; conditions: end of culture, four normal donors, 1×10^8 transducing units lentivirus
Description: (§1) 1×10^8 transducing units of lentivirus encoding anti-BCMA CARs were added one day after culture initiation and at the end of culture, the anti-BCMA CAR T cells were interrogated for genomic integration and cell surface expression of the anti-BCMA CAR.
Integrated copies of the anti-BCMA CAR were assessed by quantitative PCR at the end of culture using primers that detect the vector or the genomic control RNAseP.

anti-BCMA CAR T cells [2] = assay: CD62L expression on anti-BCMA CAR T cells by flow cytometry at end of culture; assay type: cell-based, human
Description: CAR T cells were cultured with either MK-2206 or triciribine phosphate-TCN (AKT inhibitors) or ZSTK474 (PI3K inhibitor). CAR T cells specific for B cell maturation antigen (BCMA) were used in these set of experiments. CAR T cell cultures were performed using a system directly scalable to large clinical manufacturing processes. […] 2×10^8 transducing units of lentivirus encoding anti-BCMA CARs were added one day after culture initiation. […] At the end of culture, the anti-BCMA CAR T cells were interrogated for phenotype.
(§2) Expression of CD62L on anti-BCMA CAR T cells was assessed by flow cytometry at the end of culture. Anti-BCMA CAR T cells were specifically identified using recombinant human BCMA-IgG Fc conjugated to PE. CD62L expression was determined with a co-stain using an antibody specific to CD62L. […] (FIG. 3).
Anti-BCMA CAR T cells cultures were prepared using a system directly scalable to large clinical manufacturing processes. […] 2×10^8 transducing units of lentivirus encoding anti-BCMA CARs were added one day after culture initiation. […] At the end of culture, the anti-BCMA CAR T cells were interrogated for phenotype.
as §2, with “7).” for “3).”

anti-BCMA CAR T cells [3] = assay: Cell surface expression of anti-BCMA CAR by flow cytometry; assay type: cell-based, human; conditions: end of culture, four normal donors
Description: as §1
Expression of the anti-BCMA CAR on the surface of T cells was assessed by flow cytometry at the end of culture. Anti-BCMA CAR T cells were specifically identified using recombinant human BCMA-IgG Fc conjugated to PE.

T cells [4] = assay: CD62L expression on T cells cultured with MK-2206; assay type: cell-based, human
Description: Peripheral blood mononuclear cells (PBMC) are a heterogeneous cellular population containing T cells. PBMC were harvested from normal donors and labeled with a fluorescent dye (CellTrace® Violet, Molecular Probes), whose intensity is progressively diluted by a factor of two with each cell division. The labeled PBMCs were used as a source of cells for T cell expansion. […] The impact of MK-2206 on cell division was assayed by evaluating CellTrace Violet dilution with flow cytometry after the addition of 0.025 μM, 0.074 μM, 0.222 μM, 0.67 μM, or 2.0 μM, MK-2206 to the T cultures at day 0. […] A pairwise t test was performed on all day seven cultures; (each concentration of MK-2206 was compared to 0 μM MK-2206: the cultures were not statistically different at the p≤0.05 level). The purpose of this experiment was to determine the effect of Akt inhibitors on T cell markers for T cell potency. The impact of MK-2206 (Selleckchem) on T cell potency was assessed by measuring CD62L expression in the T cell cultures manufactured in Example 1. Mouse models have shown that CD62L expression identifies potent T cells; T cells with greater anti-tumor efficacy after adoptive transfer. […] FIG. 2. A pairwise T test was performed on all day seven cultures (each concentration of MK-2206 was compared to 0 μM MK-2206: *p<0.05, **p<0.01).

T cells [5] = assay: T cell proliferation by CellTrace Violet dilution (flow cytometry); assay type: cell-based, human
Description: Peripheral blood mononuclear cells (PBMC) are a heterogeneous cellular population containing T cells. PBMC were harvested from normal donors and labeled with a fluorescent dye (CellTrace® Violet, Molecular Probes), whose intensity is progressively diluted by a factor of two with each cell division. The labeled PBMCs were used as a source of cells for T cell expansion. […] The impact of MK-2206 on cell division was assayed by evaluating CellTrace Violet dilution with flow cytometry after the addition of 0.025 μM, 0.074 μM, 0.222 μM, 0.67 μM, or 2.0 μM, MK-2206 to the T cultures at day 0. […] A pairwise t test was performed on all day seven cultures; (each concentration of MK-2206 was compared to 0 μM MK-2206: the cultures were not statistically different at the p≤0.05 level).

anti-BCMA CAR T cells [6] = assay: Cell surface marker expression by multiparameter mass cytometry (CyTOF); assay type: cell-based
Description: Expression analysis of 29 additional cell surface markers on anti-BCMA CAR T cells cultured with IL-2 and ZSTK474 was performed using multiparameter mass cytometry (CyTOF) and compared with CAR T cells cultured in IL-2 alone.

anti-BCMA CAR T cells [7] = assay: CD8 expression by flow cytometry; assay type: cell-based, human; conditions: seven normal donors, IL-2 and ZSTK474
Description: CD8 expression was determined using a fluorescently-labeled anti-CD8 antibody and flow cytometry. […] FIG. 10.

anti-BCMA CAR T cells [8] = assay: CD127, CD197, CD38 co-expression by fluorescence-based flow cytometry; assay type: cell-based; conditions: seven donors, ten days of culture
Text: The mass cytometry data in Example 8 identified a set of cell surface markers that further characterizes the phenotype of CART cells cultured in the presence of ZSTK474. […] CAR T cells from seven donors cultured in the presence or absence of ZSTK474 were stained with fluorescently labeled antibodies to CD127, CD197, and CD38. […] FIG. 9.

anti-BCMA CAR T cells [9] = assay: Tonic (antigen-independent) IFN-γ release by ELISA; assay type: cell-based; conditions: 14 donors; after ten days of culture; IFN-γ levels below 200 pg/mL represent no tonic activity
Description: Tonic activity of CAR T cells in the absence of antigen has been associated with reduced biological activity. […] Anti-BCMA CAR T cells cultures were prepared using a system directly scalable to large clinical manufacturing processes. […] 2×10^8 transducing units of lentivirus encoding anti-BCMA CARs were added one day after culture initiation. […] At the end of manufacture, an equivalent number of anti-BCMA CAR T cells were re-cultured for 24 hours in media alone. The amount of IFN-γ released in 24 hours was quantified by ELISA. In this assay IFN-γ levels below 200 pg/mL represent no tonic activity.

[10] = Example 3: ten days of culture with IL-2 and optimized dose of inhibitor, three normal donors
[11] = Example 7: ten days of culture with IL-2 and optimized dose of inhibitor, four normal donors

Row | Structure (SMILES) | integrated copies of the anti-BCMA CAR vs IL-2 only (anti-BCMA CAR T cells [1]) | CD62L expression on anti-BCMA CAR T cells vs IL-2 alone (anti-BCMA CAR T cells [2]; [10]) | CD62L expression on anti-BCMA CAR T cells vs IL-2 alone (anti-BCMA CAR T cells [2]; [11]) | anti-BCMA CAR expression on the surface of T cells vs IL-2 alone (anti-BCMA CAR T cells [3]) | CD62L expression on T cells vs no treatment control (T cells [4]; seven days of culture, all concentrations of MK-2206 tested, in presence of IL-2) | CD62L expression on T cells vs no treatment control (T cells [4]; three days of culture with MK-2206) | T cell division / proliferation vs vehicle or non-treated controls (T cells [5]; seven days of culture, 0.025-2.0 μM MK-2206, IL-2, pairwise t test p≤0.05) | T cell division / proliferation vs no treatment control (T cells [5]; three days of culture, 0.025-2.0 μM MK-2206, IL-2, CD3 and CD28 antibodies) | percentage of cells co-expressing CD127, CD197 and CD38 vs IL-2 alone (Venn diagrams) (anti-BCMA CAR T cells [6]; CD62L positive anti-BCMA T cells, ten days of culture) | anti-BCMA CAR T cells co-expressing CD127, CD197 and CD38 (anti-BCMA CAR T cells [6]; CyTOF, CD62L positive cells, ten days of culture) [%] | expression of CD127, CD197 and CD38 vs IL-2 alone (anti-BCMA CAR T cells [6]; CyTOF, anti-BCMA CAR T cells cultured with IL-2 and ZSTK474) | CD8 expression vs IL-2 alone (anti-BCMA CAR T cells [7]) | anti-BCMA CAR T cells co-expressing CD127, CD197 and CD38 vs IL-2 alone (anti-BCMA CAR T cells [8]) | IFN-γ released in 24 hours in media alone (tonic activity) (anti-BCMA CAR T cells [9])
1 | NC1(c2ccc(-c3nc4ccn5c(=O)[nH]nc5c4cc3-c3ccccc3)cc2)CCC1 [MK-2206] | significantly more integrated copies | significantly higher CD62L expression | significantly higher CD62L expression | significantly higher CAR expression | significantly increases CD62L expression; also recorded: significant higher levels of CD62L expression | not substantially different | no statistically significant differences in T cell division; also recorded: not substantially different | did not substantially decrease T cell division; also recorded: only slightly decreased |  |  |  |  |  | 
2 | Nc1nc(N)c2nc(-c3cccc(O)c3)cnc2n1 [TG100713] |  |  | significantly higher CD62L expression |  |  |  |  |  |  |  |  |  |  | 
3 | FC(F)c1nc2ccccc2n1-c1nc(N2CCOCC2)nc(N2CCOCC2)n1 [ZSTK474] |  | increased CD62L expression; also recorded: significantly higher CD62L expression | significantly higher CD62L expression |  |  |  |  |  | increase in the percentage of cells co-expressing CD127, CD197 and CD38 | 24.5 | increased expression | significantly higher CD8 expression; also recorded: increased percentage of CD8 expressing anti-BCMA CAR T cells | significant increase; also recorded: increase in the percentage of cells co-expressing CD127, CD197 and CD38 | consistent with lacking tonic activity; also recorded: did not significantly increase
